In patent US20260060918A1, “HIGH-PERMEABILITY INCLUSION FOR SOOTHING SKIN REDNESS, HEAT, AND PAIN, AND PREPARATION METHOD AND USE THEREOF” (N.O.D TOPIA (GUANGZHOU) BIOTECHNOLOGY CO.,LTD., priority 2023, published 2026):

System: LPS-induced HaCaT cells
Test: Anti-inflammatory and soothing experiment: inflammatory factors secreted by LPS-induced HaCaT cells (ELISA)
Format: cell-based
Details: inclusion at volume ratio of 0.3% (dexamethasone 50 µg/mL) with 50 µg/ml LPS, 24 h, supernatant, Mean ± SD, n = 3
Experimental: In vitro stimuli can activate toll-like receptors (TLR-2 and TLR-4) on keratinocytes, leading to the activation of MAPK and NF-κB pathways. Then, the keratinocytes produce IL-1, IL-6, IL-8, TNF-α, and human HBD-2 (defensins), which induces inflammation and causes skin discomfort. The anti-inflammatory effects of the inclusions in Examples 1 to 9 and Comparative Examples 1 to 9 were evaluated by using LPS-induced HaCaT cells as an inflammatory cell model in vitro and detecting inflammatory factors IL-la, […], and TNF-α secreted in cell supernatant by an ELISA kit.
The HaCaT cells were inoculated into a 12-well plate with a density of 2.0-3.0×10^5 cells/well, and incubated in an incubator at a temperature of 37±1° C. and a humidity of 90±5%. After the incubation, the culture plate was taken out, and the original culture solution in the well was discarded. In the sample group, 1 mL of test samples with a volume ratio of 0.3% and 50 µg/ml of LPS culture solution were added to each well; in the model group, only 50 µg/mL of LPS culture solution were added; in the positive control group, 1 mL of dexamethasone ([…]) and LPS ([…]) culture solution was added, while in the blank negative control group, 1 mL of culture solution was only added for culturing 24 h. The supernatant was collected by centrifugation and stored at −80° C. Cytokines of IL-la, […], and TNF-α were determined by using the method described in the ELISA kit, and signals were detected at a wavelength of 450 nm. The content of inflammatory factors was shown in Table 6 by the secretion amount (pg) of IL-i1α, IL-1β, and TNF-α contained in each mL of the culture solution, and triplicate wells were set for each test.

## C[C@@H]1C[C@H]2[C@@H]3CCC4=CC(=O)C=C[C@]4(C)[C@@]3(F)[C@@H](O)C[C@]2(C)[C@@]1(O)C(=O)CO [Dexamethasone, dexamethasone]
Model group 63.29 ± 0.39
  IL-1α secretion amount in culture solution: 36.30 ± 0.21 pg/mL
Model group 66.29 ± 0.29
  IL-1β secretion amount in culture solution: 24.67 ± 0.65 pg/mL
Model group 92.33 ± 2.25
  TNF-α secretion amount in culture solution: 77.27 ± 2.96 pg/mL
